Data reported in article PMC7395068, “The evolution of strategies to minimise the risk of human drug-induced liver injury (DILI) in drug discovery and development” (Archives of Toxicology, 2020).
Like-named read-outs stand apart in the source and are kept apart here. Values belong to the compound of their own block, whether it stands above or below them.

Assays:
PHH [1] = details: cited from earlier work
[2] = system: THLE or HepG2 cells, isolated mitochondria, BSEP; details: cited from earlier work
[3] = system: isolated mouse liver mitochondria; details: cited from earlier work
[4] = system: primary human hepatocytes, NIH3T3 fibroblasts, BSEP, CYP3A4; details: cited from earlier work
rBsep = details: In vitro Assay; ref Dawson 2012; cited from earlier work
[5] = read-out: Human plasma Cmax; total plasma Cmax.tot, median of 9 literature references; cited from earlier work
HepG2 cells = details: cited from earlier work
[6] = plasma free fraction; cited from earlier work
[7] = system: HepG2 cells, primary human hepatocytes; details: In vitro Assay; ref Garside 2014; cited from earlier work
[8] = Plasma free fraction (fu) and unbound Cmax (Cmax,u); type: in vitro ADME, human; details: unbound plasma Cmax
[9] = cited from earlier work
[10] = system: THLE-Null and THLE-3A4 cells; details: In vitro Assay; ref Gustafsson 2014; cited from earlier work
hLiMTs [11] = details: cited from earlier work
[12] = system: HepG2 C3A spheroid, BSEP, Glu/Gal in HepG2 cells, bioactivation; details: cited from earlier work
[13] = ref Chen 2011; cited from earlier work
hLiMTs [14] = experiment: Combined HCI (HCS) and cellular ATP 3D assay in hLiMTs; details: for AC50 / minimal effective concentration: Homo sapiens
HepG2 = system: HepG2; set-up: method as in Albrecht 2019; details: In vitro Assay; ref Albrecht 2019; cited from earlier work
[15] = cited from earlier work; remark: listed apart in the source
PHH [16] = details: In vitro Assay; ref Albrecht 2019; cited from earlier work
HepaRG spheroids = experiment: Combined HCI (HCS) and cellular ATP 3D assay in HepaRG spheroids; details: for AC50 / minimal effective concentration: Homo sapiens
RMPCC's = details: cited from earlier work
hu-MPCC = details: cited from earlier work
[17] = In vitro Assay, ref Proctor 2017
[18] = Modeled in vitro assays (cytotoxicity, mitochondrial dysfunction, BSEP), ref Aleo et al. 2019
[19] = In vitro Assay, ref Porceddu 2012
[20] = In vitro Assay, ref Schadt 2015
[21] = Microtissue model structural based (HCI), combined HCS and ATP, MEC < 25 × Cmax.tot cut-off

- Human plasma Cmax,u [8]: 12.190 µM
- hLiMTs <25x Avg Cmax ATP (hLiMTs [14]; hLiMTs, ATP endpoint, cut-off <25x Avg Cmax): +ve
- hLiMTs <100x Avg Cmaxu ATP (hLiMTs [14]; hLiMTs, ATP endpoint, cut-off <100x Avg Cmaxu): +ve (<100x Avg Cmaxu)
- hLiMTs <25x Avg Cmax HCS (hLiMTs [14]; hLiMTs, HCS endpoints, cut-off <25x Avg Cmax): +ve
- hLiMTs <100x Avg Cmaxu HCS (hLiMTs [14]; hLiMTs, HCS endpoints, cut-off <100x Avg Cmaxu): +ve (<100x Avg Cmaxu)
- hLiMTs <25x Avg Cmax All (hLiMTs [14]; hLiMTs, all endpoints (ATP and HCS), cut-off <25x Avg Cmax): +ve
- hLiMTs Cmax max All (hLiMTs [14]; hLiMTs, all endpoints, Cmax max used): +ve
- hLiMTs Cmax min All (hLiMTs [14]; hLiMTs, all endpoints, Cmax min used): +ve
- hLiMTs <10 uM All (hLiMTs [14]; hLiMTs, all endpoints, cut-off <10 uM): -ve
- hLiMTs <100x Avg Cmaxu All (hLiMTs [14]; hLiMTs, all endpoints, cut-off <100x Avg Cmaxu): +ve (<100x Avg Cmaxu)
- HepaRG <25x Avg Cmax ATP (HepaRG spheroids; HepaRG, ATP endpoint, cut-off <25x Avg Cmax): +ve
- HepaRG <100x Avg Cmaxu ATP (HepaRG spheroids; HepaRG, ATP endpoint, cut-off <100x Avg Cmaxu): +ve (<100x Avg Cmaxu)
- HepaRG <25x Avg Cmax HCS (HepaRG spheroids; HepaRG, HCS endpoints, cut-off <25x Avg Cmax): +ve
- HepaRG <100x Avg Cmaxu HCS (HepaRG spheroids; HepaRG, HCS endpoints, cut-off <100x Avg Cmaxu): +ve (<100x Avg Cmaxu)
- HepaRG <25x Avg Cmax All (HepaRG spheroids; HepaRG, all endpoints (ATP and HCS), cut-off <25x Avg Cmax): +ve
- HepaRG Cmax max All (HepaRG spheroids; HepaRG, all endpoints, Cmax max used): +ve
- HepaRG Cmax min All (HepaRG spheroids; HepaRG, all endpoints, Cmax min used): +ve
- HepaRG <10 uM All (HepaRG spheroids; HepaRG, all endpoints, cut-off <10 uM): -ve
- HepaRG <100x Avg Cmaxu All (HepaRG spheroids; HepaRG, all endpoints, cut-off <100x Avg Cmaxu): +ve (<100x Avg Cmaxu)
SMILES: NC(=O)N1c2ccccc2C=Cc2ccccc21 [carbamazepine, reference compound]
- PHH/100xCmax, Proctor (2017) (PHH [1]; 2D PHH, ATP, IC50 < 100 × Cmax.tot, ref Proctor et al. 2017): -VE
- PHH/100uM, Proctor (2017) (PHH [1]; 2D PHH, ATP, IC50 threshold 100 µM, ref Proctor et al. 2017): -VE
- PHH ATP <100uM (PHH [1]; [17]): -VE
- Partition Hybrid HRM Score ([2]; In vitro Assay, ref Aleo 2019): +VE
- Ro2 Hybrid HRM Score ([2]; In vitro Assay, ref Aleo 2019): +VE
- Partition Hybrid HRM Score ≥4, Aleo (2019) [2, 18]: +VE (Partition Hybrid HRM Score ≥4)
- Partition Hybrid HRM Score ≥8, Aleo (2019) [2, 18]: -VE
- Rule of Two hybrid HRM Score ≥3, Aleo (2019) [2, 18]: +VE (Rule of Two hybrid HRM Score ≥3)
- Rule of Two hybrid HRM Score ≥8, Aleo (2019) [2, 18]: -VE
- in vitro data EC2<=1x Cmax [3, 19]: +VE
- in vitro data EC20<=2uM [3, 19]: +VE
- DILI in vitro assay prediction, Schadt (2015) ([4]; BSEP & Metabolism based, ref Schadt et al. 2015): +VE
- Cellular toxicity (3T3 cells) [4, 20]: -VE
- Combined Assay [4, 20]: +VE
- GSH adduct HML [4, 20]: +VE
- Hepatocyte cellular toxicity [4, 20]: -VE
- MitoTox 3T3 [4, 20]: -VE
- TDI CYP3A4 [4, 20]: -VE
- hBSEP inhibition [4, 20]: -VE
- Inhibition of rBsep cutoff<1& cmax u>.2 (rBsep): -VE
- Inhibition of rBsep cutoff<3 (rBsep): -VE
- Cmax [5]: 50.8 µM
- Structural based (HCI) (HepG2 cells; In vitro Assay, ref Tolosa 2012): +VE
- DILI in vitro assay prediction, Tolosa (2012) (HepG2 cells; Structural based (HCI), HepG2, ref Tolosa et al. 2012): +VE
- fu [6]: 0.240
- Cluster 1-6 +VE Assay [7]: -VE
- DILI severity category (Chen et al. [2016]) ([9]; LTKB DILIrank category, ref Chen et al. 2016): Most
- DILI severity category (Chen 2016) ([9]; human DILI classification, LTKB DILIrank, ref Chen et al. 2016): Most
- DILI severity category ([9]; human DILI severity, ref Chen et al.): Most
- DILI +VE (5-8), DILI -VE (-4) ([9]; ref Chen 2016): +VE
- DILI severity category ([9]; ref Chen 2016): vMost-DILI-Concern
- THLE-Null [10]: -VE
- THLE-Null/3A4 [10]: -VE
- hLiMTs ATP <100uM (hLiMTs [11]; [17]): -VE
- hLiMTs/100xCmax, Proctor (2017) (hLiMTs [11]; hLiMTs, ATP, IC50 < 100 × Cmax.tot, ref Proctor et al. 2017): +VE (IC50 < 100 × Cmax.tot)
- hLiMTs/100uM, Proctor (2017) (hLiMTs [11]; hLiMTs, ATP, IC50 threshold 100 µM, ref Proctor et al. 2017): -VE
- Bayesian Machine Learning DILI prediction, Williams (2019) ([12]; Bayesian modeling, ref Williams et al. 2019): +VE
- Bayesian Machine Learning ([12]; In vitro Assay, ref Williams 2019): +VE
- DILI Score (FDA) (1-8) [13]: 7
- AC50 (hLiMTs [14]; read-out: ATP endpoint AC50): 145 µM
- minimal effective concentration (hLiMTs [14]; read-out: ATP endpoint MEC): 73.6 µM
- AC50 (hLiMTs [14]; read-out: HCS endpoint AC50): 226 µM
- minimal effective concentration (hLiMTs [14]; read-out: HCS endpoint MEC): 109 µM
- DILI prediction hLiMTs (HCS-MEC) (hLiMTs [14]; [21]): +VE (MEC < 25 × Cmax.tot cut-off)
- Cytotoxicity HepG2 48 hrs (HepG2): +VE
- Assigned DILI category ([15]; Chen et al. 2016 or literature alignment, ref Chen et al. 2016): 3
- In vivo DILI ([15]; […]): +VE
- In vivo DILI ([15]; ref Albrecht 2019): +VE
- In vivo DILI ([15]; ref Aleo 2019): +VE
- In vivo DILI ([15]; ref Dawson 2012): +VE
- In vivo DILI ([15]; ref Garside 2014): +VE
- In vivo DILI ([15]; ref Gustafsson 2014): +VE
- In vivo DILI ([15]; ref Porceddu 2012): +VE
- In vivo DILI ([15]; ref Proctor 2017): +VE
- In vivo DILI ([15]; ref Schadt 2015): +VE
- In vivo DILI ([15]; ref Tolosa 2012): +VE
- In vivo DILI ([15]; ref Williams 2019): +VE
- Cytotoxicity PHH 48 hrs (PHH [16]): +VE
- AC50 (HepaRG spheroids; HepaRG, read-out: ATP endpoint AC50): 159 µM
- minimal effective concentration (HepaRG spheroids; HepaRG, read-out: ATP endpoint MEC): 81.5 µM
- AC50 (HepaRG spheroids; HepaRG, read-out: HCS endpoint AC50): 343 µM
- minimal effective concentration (HepaRG spheroids; HepaRG, read-out: HCS endpoint MEC): 172 µM
- DILI prediction HepaRG spheroids (HCS-MEC) (HepaRG spheroids; [21]): +VE (MEC < 25 × Cmax.tot cut-off)

SMILES: O=C(O)c1cn(C2CC2)c2cc(N3CCNCC3)c(F)cc2c1=O [ciprofloxacin]
- in vitro data EC20<=2uM [3]: -VE
- RMPCC's (RMPCC's): +VE
- HMPCC's (hu-MPCC): +VE
